Measurements taken from patent US9957271B2, “Substituted bicyclic aza-heterocycles and analogues as sirtuin modulators” (GlaxoSmithKline, LLC, priority 2012, dated 2018).

Columns and labels:
SIRT1 [1] = target: T1, SIRT1 (Homo sapiens, UniProt Q96EB6); experiment: TAMRA based mass spectrometry assay of SIRT1 activity; format: biochemical; details: for Emax: read-out: TAMRA % Fold Act
T1 sequence (Q96EB6 1-747): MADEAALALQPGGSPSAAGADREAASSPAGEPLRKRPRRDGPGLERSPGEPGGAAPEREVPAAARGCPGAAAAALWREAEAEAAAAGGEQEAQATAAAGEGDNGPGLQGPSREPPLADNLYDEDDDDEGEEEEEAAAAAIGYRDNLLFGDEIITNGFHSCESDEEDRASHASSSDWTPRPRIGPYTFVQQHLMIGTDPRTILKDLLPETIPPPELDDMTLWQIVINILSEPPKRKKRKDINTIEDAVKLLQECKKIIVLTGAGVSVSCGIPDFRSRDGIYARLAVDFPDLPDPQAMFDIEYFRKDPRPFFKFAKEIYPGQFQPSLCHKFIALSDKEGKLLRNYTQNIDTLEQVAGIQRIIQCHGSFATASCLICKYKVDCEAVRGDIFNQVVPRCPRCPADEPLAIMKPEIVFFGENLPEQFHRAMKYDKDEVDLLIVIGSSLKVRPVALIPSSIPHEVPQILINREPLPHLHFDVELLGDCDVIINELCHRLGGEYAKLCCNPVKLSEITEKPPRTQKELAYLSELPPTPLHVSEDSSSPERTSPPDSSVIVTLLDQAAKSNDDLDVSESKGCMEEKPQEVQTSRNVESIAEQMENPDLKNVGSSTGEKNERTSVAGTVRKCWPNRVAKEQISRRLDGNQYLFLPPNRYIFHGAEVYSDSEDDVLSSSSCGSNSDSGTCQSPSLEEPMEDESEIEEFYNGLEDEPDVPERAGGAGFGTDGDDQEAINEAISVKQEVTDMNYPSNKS
Outline: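 Deacetylation of a biotinylated, TAMRA-tagged p53-based peptide (0.5 μM) by 10 nM His-tagged SIRT1 with 120 μM βNAD+, 25 °C for 25 min, pH 8 Tris-acetate buffer, across a compound concentration range. Quenched by formic acid and read by mass spec as product peptide or OAADPR; activity relative to DMSO reactions, nicotinamide defining maximal inhibition.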

SIRT1 [2] = target: T1, SIRT1; experiment: Trp mass spectrometry assay of SIRT1 activity; format: biochemical; details: for Emax: read-out: Trp % Fold Act
Outline: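 Activation readout: EC1.5 (concentration raising activity 50% over control) and percent maximum activation, from mass-spec quantitation of OAADPR or deacetylated Trp peptide. Reaction: 0.5 μM acetylated Trp peptide, 120 μM βNAD+, 10 nM bacterially expressed N-His SIRT1, pH 7.5 HEPES buffer with […], 25 min at 25° C.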

[3] = TAMRA assay, concentration giving 150% activation of SIRT1
[4] = TAMRA assay, percent maximum fold activation
[5] = Trp assay, concentration giving 150% activation of SIRT1
[6] = Trp assay, percent maximum fold activation
[7] = TAMRA peptide substrate, concentration giving 150% activation of SIRT1
[8] = TAMRA peptide substrate, percent maximum fold activation
[9] = Trp peptide substrate, concentration giving 150% activation of SIRT1
[10] = Trp peptide substrate, percent maximum fold activation
[11] = concentration of test compound giving 150% activation of SIRT1, TAMRA peptide substrate
[12] = percent maximum fold activation of SIRT1, TAMRA peptide substrate
[13] = concentration of test compound giving 150% activation of SIRT1, Trp peptide substrate
[14] = percent maximum fold activation of SIRT1, Trp peptide substrate

| SMILES | TAMRA EC1.5 (μM) (SIRT1 [1]; [3]) | Emax (SIRT1 [1]; [4]) | Trp EC1.5 (μM) (SIRT1 [2]; [5]) | Emax (SIRT1 [2]; [6]) | further results |
| --- | --- | --- | --- | --- | --- |
| O=C(Nc1cncc(F)c1)c1cnn2ccc(-c3ccccc3C(F)(F)F)nc12 [Compound 642] | A (EC1.5<1 μM) | ≥ 350% | B (EC1.5 1-25 μM) | ≥ 350% | – |
| O=C(Nc1cnc2ccc(-c3ccccc3F)nn12)c1nccs1 [Compound 303] | B (EC1.5 1-25 μM) | < 350% | C (EC1.5>25 μM) | < 350% | – |
| Cc1nc2ccc(-c3ccccc3OC(F)(F)F)nn2c1C(=O)Nc1ccccn1 [Compound 496] | – | – | – | – | TAMRA EC1.5 (SIRT1 [1]; [7]): A (EC1.5<1 μM); Emax (SIRT1 [1]; [8]): ≥ 350%; Trp EC1.5 (SIRT1 [2]; [9]): A (EC1.5<1 μM); Emax (SIRT1 [2]; [10]): < 350% |
| COc1ccc(NC(=O)c2c(C)nc3ccc(-c4cccc(F)c4)nn23)nn1 [Compound 761] | C (EC1.5>25 μM) | < 350% | A (EC1.5<1 μM) | < 350% | – |
| Cc1cncc(NC(=O)c2cnn3ccc(-c4ccccc4C(F)(F)F)nc23)n1 [Compound 654] | A (EC1.5<1 μM) | ≥ 350% | B (EC1.5 1-25 μM) | < 350% | – |
| Cc1cnc(NC(=O)c2cnn3ccc(-c4ccccc4OC(F)(F)F)nc23)s1 [Compound 603] | B (EC1.5 1-25 μM) | ≥ 350% | B (EC1.5 1-25 μM) | < 350% | – |
| COc1ccc(NC(=O)c2c(C)nc3ccc(-c4ccccc4C(F)(F)F)nn23)nn1 [Compound 665] | A (EC1.5<1 μM) | ≥ 350% | B (EC1.5 1-25 μM) | < 350% | – |
| Cc1ncccc1NC(=O)c1cnc2ccc(-c3ccccc3C(F)(F)F)nn12 [Compound 113] | – | – | – | – | TAMRA EC1.5 (μM) (SIRT1 [1]; [11]): B (EC1.5 1-25 μM); Emax (SIRT1 [1]; [12]): < 350%; Trp EC1.5 (μM) (SIRT1 [2]; [13]): B (EC1.5 1-25 μM); Emax (SIRT1 [2]; [14]): < 350% |
| O=C(Nc1cnn2ccc(-c3ccccc3C(F)(F)F)nc12)c1nc(C(F)(F)F)cs1 [Compound 809] | A (EC1.5<1 μM) | ≥ 350% | C (EC1.5>25 μM) | < 350% | – |
| Cc1ccncc1NC(=O)c1cnn2ccc(-c3ccccc3C(F)(F)F)nc12 [Compound 640] | B (EC1.5 1-25 μM) | < 350% | B (EC1.5 1-25 μM) | < 350% | – |
| O=C(Nc1ccccn1)c1cnc2ccc(-c3cccc(OC(F)(F)F)c3)nn12 [Compound 8] | – | – | – | – | TAMRA EC1.5 (μM) (SIRT1 [1]; [11]): B (EC1.5 1-25 μM); Emax (SIRT1 [1]; [12]): < 350%; Trp EC1.5 (μM) (SIRT1 [2]; [13]): B (EC1.5 1-25 μM); Emax (SIRT1 [2]; [14]): < 350% |
| Cc1cc(C)nc(NC(=O)c2cnn3ccc(-c4ccccc4C(F)(F)F)nc23)n1 [Compound 806] | A (EC1.5<1 μM) | ≥ 350% | B (EC1.5 1-25 μM) | ≥ 350% | – |
| Cc1nc(C(=O)Nc2cnc3c(C)cc(-c4ccccc4C(F)(F)F)nn23)c(C)s1 [Compound 413] | – | – | – | – | TAMRA EC1.5 (SIRT1 [1]; [7]): A (EC1.5<1 μM); Emax (SIRT1 [1]; [8]): ≥ 350%; Trp EC1.5 (SIRT1 [2]; [9]): A (EC1.5<1 μM); Emax (SIRT1 [2]; [10]): < 350% |
| Cc1nc2ccc(-c3cccc(OC[C@H](O)CO)c3)nn2c1C(=O)Nc1ccc(F)cn1 [Compound 821] | B (EC1.5 1-25 μM) | < 350% | A (EC1.5<1 μM) | < 350% | – |
| O=C(Nc1ncn2ccc(-c3ccccc3C(F)(F)F)nc12)c1ccncn1 [Compound 484] | – | – | – | – | TAMRA EC1.5 (SIRT1 [1]; [7]): B (EC1.5 1-25 μM); Emax (SIRT1 [1]; [8]): < 350%; Trp EC1.5 (SIRT1 [2]; [9]): C (EC1.5>25 μM); Emax (SIRT1 [2]; [10]): < 350% |
| Cc1ccc(NC(=O)c2c(C)nc3ccc(-c4cccc(F)c4)nn23)nn1 [Compound 716] | B (EC1.5 1-25 μM) | < 350% | A (EC1.5<1 μM) | < 350% | – |
| O=C(Nc1cccc(CN2CCOCC2)n1)c1cnc2ccc(-c3ccccc3Cl)nn12 [Compound 116] | – | – | – | – | TAMRA EC1.5 (μM) (SIRT1 [1]; [11]): A (EC1.5<1 μM); Emax (SIRT1 [1]; [12]): ≥ 350%; Trp EC1.5 (μM) (SIRT1 [2]; [13]): C (EC1.5>25 μM); Emax (SIRT1 [2]; [14]): < 350% |
